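Dose response: 5 concentrations. Exposure: 48 h. Format: 96-well plates. Endpoint: linear interpolation; highest concentration if not reached. TGI marks complete inhibition of growth.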
Tests used:
Assay in all cases: inhibition of tumour cell growth, NCI panel, 48 h
786-0 renal = test system: 786-0 renal
A498 renal = test system: A498 renal
A549 NSCLC = test system: A549 NSCLC
ACHN renal = test system: ACHN renal
BT-549 breast = test system: BT-549 breast
CAKI-1 renal = test system: CAKI-1 renal
CCRF-CEM leukemia = test system: CCRF-CEM leukemia
COLO 205 colon = test system: COLO 205 colon
DU-145 prostate = test system: DU-145 prostate
EKVX NSCLC = test system: EKVX NSCLC
HCC-2998 colon = test system: HCC-2998 colon
HCT-116 colon = test system: HCT-116 colon
HCT-15 colon = test system: HCT-15 colon
HL-60(TB) leukemia = test system: HL-60(TB) leukemia
HOP-62 NSCLC = test system: HOP-62 NSCLC
HOP-92 NSCLC = test system: HOP-92 NSCLC
HS 578T breast = test system: HS 578T breast
HT29 colon = test system: HT29 colon
IGROV1 ovarian = test system: IGROV1 ovarian
K-562 leukemia = test system: K-562 leukemia
KM12 colon = test system: KM12 colon
LOX IMVI melanoma = test system: LOX IMVI melanoma
M14 melanoma = test system: M14 melanoma
MALME-3M melanoma = test system: MALME-3M melanoma
MCF7 breast = test system: MCF7 breast
MDA-MB-231 breast = test system: MDA-MB-231 breast
MDA-MB-435 = test system: MDA-MB-435
MDA-N = test system: MDA-N
MOLT-4 leukemia = test system: MOLT-4 leukemia
NCI-H226 lung = test system: NCI-H226 lung
NCI-H23 lung = test system: NCI-H23 lung
NCI-H460 lung = test system: NCI-H460 lung
NCI-H522 lung = test system: NCI-H522 lung
NCI/ADR-RES ovarian = test system: NCI/ADR-RES ovarian
OVCAR-3 ovarian = test system: OVCAR-3 ovarian
OVCAR-4 ovarian = test system: OVCAR-4 ovarian
OVCAR-5 ovarian = test system: OVCAR-5 ovarian
OVCAR-8 ovarian = test system: OVCAR-8 ovarian
PC-3 prostate = test system: PC-3 prostate
RPMI-8226 leukemia = test system: RPMI-8226 leukemia
RXF 393 renal = test system: RXF 393 renal
SF-268 CNS = test system: SF-268 CNS
SF-295 CNS = test system: SF-295 CNS
SF-539 CNS = test system: SF-539 CNS
SK-MEL-2 melanoma = test system: SK-MEL-2 melanoma
SK-MEL-28 melanoma = test system: SK-MEL-28 melanoma
SK-MEL-5 melanoma = test system: SK-MEL-5 melanoma
SK-OV-3 ovarian = test system: SK-OV-3 ovarian
SN12C renal = test system: SN12C renal
SNB-19 CNS = test system: SNB-19 CNS
SNB-75 CNS = test system: SNB-75 CNS
SR leukemia = test system: SR leukemia
SW-620 colon = test system: SW-620 colon
T-47D breast = test system: T-47D breast
TK-10 renal = test system: TK-10 renal
U251 CNS = test system: U251 CNS
UACC-257 melanoma = test system: UACC-257 melanoma
UACC-62 melanoma = test system: UACC-62 melanoma
UO-31 renal = test system: UO-31 renal

COc1c(O)ccc(C2=Cc3ccc(O)cc3OC2)c1OC
TGI (786-0 renal): > 63.5 µM
TGI (A498 renal): 80.8 µM
TGI (A549 NSCLC): > 78.9 µM
TGI (ACHN renal): > 63.4 µM
TGI (BT-549 breast): > 82.4 µM
TGI (CAKI-1 renal): 50 µM
TGI (CCRF-CEM leukemia): > 96.7 µM
TGI (COLO 205 colon): > 74 µM
TGI (DU-145 prostate): > 79.6 µM
TGI (EKVX NSCLC): > 100 µM
TGI (HCC-2998 colon): 47.1 µM
TGI (HCT-116 colon): > 61.7 µM
TGI (HCT-15 colon): 37.3 µM
TGI (HL-60(TB) leukemia): 10.7 µM
TGI (HOP-62 NSCLC): 62.4 µM
TGI (HOP-92 NSCLC): > 74 µM
TGI (HS 578T breast): > 95.3 µM
TGI (HT29 colon): > 89.5 µM
TGI (IGROV1 ovarian): > 100 µM
TGI (K-562 leukemia): 45.8 µM
TGI (KM12 colon): 33.4 µM
TGI (LOX IMVI melanoma): > 100 µM
TGI (M14 melanoma): 66.8 µM
TGI (MALME-3M melanoma): 65.7 µM
TGI (MCF7 breast): > 100 µM
TGI (MDA-MB-231 breast): > 80.7 µM
TGI (MDA-MB-435): > 92.2 µM
TGI (MDA-N): 33.5 µM
TGI (MOLT-4 leukemia): 37 µM
TGI (NCI-H226 lung): > 65.4 µM
TGI (NCI-H23 lung): > 58.3 µM
TGI (NCI-H460 lung): > 100 µM
TGI (NCI-H522 lung): 16.1 µM
TGI (NCI/ADR-RES ovarian): > 67.9 µM
TGI (OVCAR-3 ovarian): 34 µM
TGI (OVCAR-4 ovarian): > 81.1 µM
TGI (OVCAR-5 ovarian): 97.7 µM
TGI (OVCAR-8 ovarian): > 62.5 µM
TGI (PC-3 prostate): 84.4 µM
TGI (RPMI-8226 leukemia): > 26.8 µM
TGI (RXF 393 renal): > 63.5 µM
TGI (SF-268 CNS): > 100 µM
TGI (SF-295 CNS): > 83.6 µM
TGI (SF-539 CNS): 35.3 µM
TGI (SK-MEL-2 melanoma): 68 µM
TGI (SK-MEL-28 melanoma): > 94 µM
TGI (SK-MEL-5 melanoma): 38.5 µM
TGI (SK-OV-3 ovarian): > 80.8 µM
TGI (SN12C renal): > 96.5 µM
TGI (SNB-19 CNS): > 100 µM
TGI (SNB-75 CNS): > 58.3 µM
TGI (SR leukemia): 17.1 µM
TGI (SW-620 colon): > 100 µM
TGI (T-47D breast): > 82.3 µM
TGI (TK-10 renal): > 100 µM
TGI (U251 CNS): > 100 µM
TGI (UACC-257 melanoma): > 89.7 µM
TGI (UACC-62 melanoma): > 50.7 µM
TGI (UO-31 renal): 28.4 µM
